Earlier results as cited in patent US20150044284A1, “DOSAGE FORM COMPRISING A STEROID 5-ALPHA-REDUCTASE INHIBITOR AND AN ALPHA BLOCKER, PROCESS FOR PREPARING OF A DOSAGE FORM, USE OF DOSAGE FORM, METHOD FOR THE TREATMENT OR PROPHYLAXIS OF A DISEASE OR CONDITION MEDIATED BY ANDROGEN” (EMS S.A., priority 2013, published 2015).

Experiments:
[1] = system: DHT (dihydrotestosterone); settings: after only two weeks

## C[C@]12C=CC(=O)N[C@@H]1CC[C@@H]1[C@@H]2CC[C@]2(C)[C@@H](C(=O)Nc3cc(C(F)(F)F)ccc3C(F)(F)F)CC[C@@H]12 [dutasteride]
other
  Solubility in water: completely insoluble in water
[1]
  Reduction of DHT levels: 90%
